Converted amounts (≈) assume the structure as drawn. Where a name gives a salt, the structure may show the parent alone. Read-outs that look alike come from different tables or passages of the source.
Columns and labels:
[1] = cited from earlier work; for pKa: Supplementary Table 1; for LogP: log of drug partition coefficient, ref drugbank.ca
[2] = Saturation concentration (solubility) of drugs in NMP; format: physicochemical; conditions: quantified by HPLC; for solubility at 24 h: 40 °C, organic solvent or mixture, thermodynamic from solid
Experimental: The saturation concentration of a panel of fourteen (14) antiretroviral drugs in NMP was determined. For each drug, 100 mg was weighed into individual vials and 100 mg of NMP was added to each vial. The mixture was stirred at 40 °C for 24 h. […] Sample aliquots (1–2 mg, n = 4) were collected from the saturated supernatant and diluted with acetonitrile (ACN). Drug concentration in the saturated aliquots was determined by HPLC analysis.

HIV-1 = conditions: cited from earlier work; for IC90: Supplementary Table 1
[3] = Saturation solubility in PBS with or without 2% solutol; format: physicochemical; conditions: for solubility: HPLC
HIV-1JR-CSF = assay: In vitro HIV-1 inhibition in TZM-bl cells; format: cell-based; conditions: Human immunodeficiency virus 1, read-out: Effective concentration required to inhibit virus replication by 50% (IC50), DTG eluted (24 h in PBS) from solidified DTG-ISFI stored 6 months at 25 °C
Experimental: DTG-ISFI formulation was stored for 6 months at 25 °C and then solidified in PBS. The concentration of DTG eluted from the solidified implant after 24 h incubation in PBS was determined by HPLC and its HIV inhibitory activity was assessed using TZM-bl cells as described in the methods section.
Viral particles were collected in tissue culture medium that was centrifugated at 2000×g for 20 min at 4 °C to remove cell debris. […] Infected TZM-bl cells were stained using a solution containing 4 µM potassium ferrocyanide, 4 µM potassium ferricyanide, 2 µM magnesium chloride, 0.4 mg/ml X-gal[55],[56] and stained cells counted. TZM-bl cells were cultured at 37 °C 10% CO2 in TZM-bl medium (Dulbecco’s Modified Eagle Medium (Sigma) supplemented with 10% heat-inactivated fetal bovine serum, 25 mM HEPES, 500 units/ml penicillin, 50 µg/ml streptomycin and 2 mM L-glutamine (Cellgro)), and regularly checked for morphology by microscope.
Cells were regularly checked for morphology by microscopy. […] Luciferase activity was measured with a SpectraMax M3 Spectrometer (Molecular Devices, Sunnyvale, CA) and the results normalized to the luciferase activity of cells infected with HIV in the absence of DTG and expressed as a percentage of decrease in luciferase activity. Activity was measured in 3 independent experiments, each dilution measured in quadruplicate.

[4] = pH 7; cited from earlier work

Compound | pKa [1] | LogP [1] | solubility at 24 h ([2]; N-methyl-2-pyrrolidone (NMP)) | IC90 (HIV-1) | further results
COC(=O)N[C@H](C(=O)N[C@@H](Cc1ccccc1)[C@@H](O)CN(Cc1ccc(-c2ccccn2)cc1)NC(=O)[C@@H](NC(=O)OC)C(C)(C)C)C(C)(C)C [Atazanavir] | 4.3 | 4.5 | 328 ± 2 mg/mL (≈ 465 mM) |  | Protein-adjusted IC90 (PA-IC90) (HIV-1): 0.014 mg/L
CC(C)CN(C[C@@H](O)[C@H](Cc1ccccc1)NC(=O)O[C@H]1CO[C@H]2OCC[C@H]21)S(=O)(=O)c1ccc(N)cc1 [Darunavir] |  |  |  | 0.00243 mg/L (≈ 4.44e-06 mM) | solubility at 24 h ([2]; N-methyl-2-pyrrolidone): 511 ± 2 mg/mL (≈ 933 mM); Protein-adjusted IC90 (PA-IC90) (HIV-1): 0.0024 mg/L
C[C@@H]1CCO[C@H]2Cn3cc(C(=O)NCc4ccc(F)cc4F)c(=O)c(O)c3C(=O)N12 [Dolutegravir] |  | 2.2 | 255 ± 4 mg/mL (≈ 608 mM) |  | Solubility in PBS + 2% solutol relative to PBS with no solutol ([3]; 37 °C): ~ 6 fold; solubility ([3]; PBS + 2% solutol, pH 7.4, aqueous with cosolvent or surfactant or cyclodextrin, thermodynamic from solid, 37 °C): 0.564 ± 0.0036 mg/mL; solubility ([3]; PBS with no solutol, 37 °C, read-out: Solubility in PBS with no solutol): 0.091 mg/mL (≈ 0.217 mM); IC50 (HIV-1JR-CSF): 0.0021 mg/L (≈ 5.01e-06 mM); in vitro protein-adjusted IC90 for HIV-1 (HIV-1): 0.064 mg/L
O=C1Nc2ccc(Cl)cc2[C@@](C#CC2CC2)(C(F)(F)F)O1 [Efavirenz] |  | 4.6 | 118 ± 2 mg/mL (≈ 374 mM) |  | 
Nc1nc(=O)n([C@@H]2CS[C@H](CO)O2)cc1F [Emtricitabine] |  |  | 202 ± 3 mg/mL (≈ 817 mM) | 0.051 mg/L (≈ 0.000206 mM) | 
Cc1cc(C#N)cc(C)c1Oc1nc(Nc2ccc(C#N)cc2)nc(N)c1Br [Etravirine] | 3.75 | 5.54 | 122 ± 2 mg/mL (≈ 280 mM) | 0.0013 mg/L (≈ 2.99e-06 mM) | 
Nc1ccn([C@@H]2CS[C@H](CO)O2)c(=O)n1 [Lamivudine] |  |  | 250 ± 3 mg/mL (≈ 1090 mM) |  | 
CCN1C[C@H](C)n2c(c(O)c3c(=O)n(Cc4ccc(F)c(Cl)c4)nc(C(=O)NC)c32)C1=O [MK-2048] |  |  |  |  | Solubility in PBS + 2% solutol relative to PBS with no solutol ([3]; pH 7.4): ~ 9 fold; Solubility in water [4]: < 0.1 mg/mL; Saturation solubility in NMP ([2]; N-methyl-2-pyrrolidone): 715 ± 5 mg/mL; in vitro 90% inhibitory concentration (IC90) (HIV-1; against HIV-1): ~ 0.033 μg/mL; Protein-adjusted IC90 (PA-IC90) (HIV-1): 0.033 mg/L
Cc1ccnc2c1NC(=O)c1cccnc1N2C1CC1 [Nevirapine] | 2.8 | 2.5 |  | 0.04 mg/L (≈ 0.00015 mM) | 
Cc1nnc(C(=O)NC(C)(C)c2nc(C(=O)NCc3ccc(F)cc3)c(O)c(=O)n2C)o1 [Raltegravir] | 6.3 | -0.39 |  | 0.00053 mg/L (≈ 1.19e-06 mM) | solubility at 24 h ([2]; N-methyl-2-pyrrolidone): 54 ± 2 mg/mL (≈ 122 mM)
Cc1cc(/C=C/C#N)cc(C)c1Nc1ccnc(Nc2ccc(C#N)cc2)n1 [Rilpivirine] |  | 4.86 | 228 ± 5 mg/mL (≈ 622 mM) | 0.0125 mg/L (≈ 3.41e-05 mM) | Protein-adjusted IC90 (PA-IC90) (HIV-1): 0.012 mg/L
CC(C)c1nc(CN(C)C(=O)N[C@H](C(=O)N[C@@H](Cc2ccccc2)C[C@H](O)[C@H](Cc2ccccc2)NC(=O)OCc2cncs2)C(C)C)cs1 [Ritonavir] |  |  |  | 2.1 mg/L (≈ 0.00291 mM) | 
Cc1cn([C@H]2C=C[C@@H](CO)O2)c(=O)[nH]c1=O [Stavudine] | 10.26 | -0.7 | 248 ± 3 mg/mL (≈ 1110 mM) | 0.03 to 0.3 mg/L | 
CC(C)OC(=O)OCOP(=O)(CO[C@H](C)Cn1cnc2c(N)ncnc21)OCOC(=O)OC(C)C [TenofovirDisoproxil Fumarate] |  |  | 156 ± 2 mg/mL | 0.00554 mg/L | 

Source: PMC6754500, “Ultra-long-acting tunable biodegradable and removable controlled release implants for drug delivery” (Nature Communications, 2019)
